Assay: Active ingredient release of NVA to pig's skin
Format: in vitro ADME
Conditions: pig's skin, 2, 4, 6, 8 and 24 hours, FIG. 7
Protocol: For investigating the release characteristics, specimens on pig's skin are prepared and the release is determined quantitatively after 24 hours.
In order to investigate the release characteristics, samples on pig's skin are prepared and the release is determined quantitatively after 2, 4, 6, 8 and 24 hours. […] From this it is clear that the active ingredient is delivered in a controlled, sustained manner into the skin to develop its activity there.

## CCCCCCCCC(=O)NCc1ccc(O)c(OC)c1 [NVA, Nonivamide]
  quantity of NVA released in total to epidermis and dermis, course over time: uniform, linear increase

From patent US20050100588A1, “Self-adhesive matrix plaster containing an active ingredient and based on polyurethane gels” (Beiersdorf AG, priority 2001, published 2005)
